Test results reported in patent US11655210B2, “Compound for improving L-arginine bioavailability” (The General Hospital Corporation, priority 2018, dated 2023).
Where two headings read alike, the source gives them in different places.

Assays:
[1] = system: Human Brain Microvascular Endothelial Cells (HBMVEC); experiment: CellTox Green 24-hour dose dependent cytotoxicity assay; type: cell-based; settings: for toxicity in the cellular model: 100 nM, 10 μM, 100 μM, 0.5 mM
Experimental: Cell cultures were prepared using the following general procedures.
1. Under aseptic conditions 1×20 mm sterile tissue culture dish was coated with sterile 1:100 collagen for two hours at room temperature.
2. Under aseptic conditions 2× sterile 96 well-plates were coated with sterile 50 μL 1:100 collagen for two hours at room temperature.
3. After 2 hr collagen was recollected into 50 mL conical tube.
4. The petri dish and 2×96 well-plates were washed with warmed PBS.
5. Once 60% confluency of HBMVEC was observed, the plate was prepped for passage.
6. Media was aspirated from dish and washed with 1×PBS.
7. 1 mL of Trypsin was added, and the plate was transferred to 37° C. incubator for 1-2 min until cells appeared detached.
8. The plate was transferred back into sterile conditions and 2 mL of EndoGro Basal Media was added to inhibit Trypsin reaction.
9. Cells were pipetted 20× and thoroughly mixed before transferring into 25 mL of EndoGro Basal Media.
10. 100 μL of this mixture was added into each well both 96 well-plate.
11. Left over 5.8 mL of cell solution was transferred to petri dish previously coated with collagen and washed with 1×PBS.
12. Plates were incubated for 48 hours at 37° C.
The following procedures were performed for the cell cytotoxicity assay (CellTox™ Green Cytotoxicity Assay; Promega Corporation). See also CellTox™ Green Cytotoxicity Assay, Instructions for Use of Products G8741, G8742, G8743, and G8731, revised May 2015, the disclosure of which is incorporated herein by reference in its entirety.
1. Samples containing 1:1000 L-Arginine (L-Arg; 100 nM, 10 μM, 100 μM, or 0.5 mL) or 1:1000 of 2-amino-5-guanidino-N-(4-guanidinobutyl)pentanamide (Example 1; 100 nM, 10 μM, 100 μM, or 0.5 mL) were prepared with EndoGro Basal Media without supplements (MWOS) into sterile 10×1 mL microcentrifuge tubes. For concentrations of 0, 1:1000 PBS to MWOS was made.
2. […]
4. Once the wells were treated, plates were incubated at 37° C. for 24 hours and analyzed at 485-500 nm/520-530 nm after cytotoxicity assay treatment.

[2] = system: NO production in Human Brain Microvascular Endothelial Cells (HBMVEC); experiment: In vitro NO detection assay (Nitric Oxide Cell-Based HTS Assay); settings: 100 nM to 0.5 mM, analyzed every 15 mins for 1 h, Example 1 versus L-arginine, FIGS. 3-4
Experimental: “A” Bars: […]; “B” bars: 10 μM; “C” bars: 100 μM; “D” bars: 0.5 mM.
The following general procedures were performed for the NO detection assay. See, e.g., Nitric Oxide Cell-Based HTS Assay Kit technical data sheet, Biovision Incorporated; Catalog #K979-10, September 2016, the disclosure of which is incorporated herein by reference in its entirety.
1. Performed cell culture protocol as described in Example 2.
2. Warmed all reagents in 37° C. water bath.
3. Master mix: 3 μL dye to 1.5 mL of Assay buffer for at least 60 wells.
4. Standard curve master mix: 5 μL NO stock solution to 95 μL NO Buffer for at least 60 wells.
5. Media was aspirated from column 1B-1G before aliquoting standard curve solution, as shown below in Table 2.
6. Media was aspirated from 2B-2G through 6B-G before 50 μL aliquots of staining dye. This step was repeated for […] through 10B-10G.
7. Plates were incubated for 1 hour in 37° C.
8. After 1 hour, plates were transferred back into sterile conditions and washed 2× with EndoGro Media (previously warmed to 37° C.) before aliquoting the concentrations shown in Table 3 into each well.
9. Plates were incubated at 37° C. and analyzed every 15 mins for 1 h.

[3] = cited from earlier work; for baseline plasma concentration of L-arginine: normal diet over 8 hours

SMILES	toxicity in the cellular model [1]	capacity for mediating NO production [2]	baseline plasma concentration of L-arginine ([3]; converted value)	baseline plasma concentration of L-arginine [3]	peak concentration ([3]; single oral 10 g dose, converted value)	absolute bioavailability ([3]; single oral 10 g dose)	peak concentration ([3]; single oral 10 g dose)	time of peak concentration after administration ([3]; single oral 10 g dose)	toxicity in comparison to L-arginine ([1]; FIG. 2)
N=C(N)NCCC[C@H](N)C(=O)O [L-arginine]	non-toxic	nearly identical capacity for mediating NO production	~86.7 µM	about 15.1±2.6 μg/mL	~287.0 µM	about 20%	50.0 µg/mL	1 h	
N=C(N)NCCCCNC(=O)C(N)CCCNC(=N)N (centres unmarked) [Example 1, 2-amino-5-guanidino-N-(4-guanidinobutyl)pentanamide]	non-toxic	nearly identical capacity for mediating NO production							no significant difference in toxicity
